# Test results from article PMC5218480 (PLoS ONE, 2017).
# Tested on: MV-4-11 cells
# Test: Gene expression microarray analysis (Affymetrix PrimeView) and GSEA
# Type: cell-based, human
# Parameters: RFU PODN (11730768_x_at) / Fold change /veh PODN (11730768_x_at) / RFU LINC00158 (11744669_a_at) / Fold change /veh LINC00158 (11744669_a_at) / RFU DUSP10 (11751237_a_at) / Fold change /veh DUSP10 (11751237_a_at) / RFU ID3 (11757404_x_at) / Fold change /veh ID3 (11757404_x_at) / RFU PLEKHG5 (11737974_s_at) / Fold change /veh PLEKHG5 (11737974_s_at) / RFU LRRC4B (11730491_at) / Fold change /veh LRRC4B (11730491_at) / RFU GIMAP4 (11747438_a_at) / Fold change /veh GIMAP4 (11747438_a_at) / RFU KRT8 (11758183_x_at) / Fold change /veh KRT8 (11758183_x_at) / RFU CNN1 (11734310_a_at) / Fold change /veh CNN1 (11734310_a_at) / RFU VPS37D (11726825_at) / Fold change /veh VPS37D (11726825_at) / RFU C10orf10 (11716522_x_at) / Fold change /veh C10orf10 (11716522_x_at) / RFU KIR2DL2 /// KIR2DL4 /// KIR2DL5A /// KIR2DL5B /// KIR2DS1 /// KIR2DS2 /// KIR2DS3 /// KIR2DS4 /// KIR3DL3 /// KIR3DL3 /// KIR3DS1 (11738374_at) / Fold change /veh KIR2DL2 /// KIR2DL4 /// KIR2DL5A /// KIR2DL5B /// KIR2DS1 /// KIR2DS2 /// KIR2DS3 /// KIR2DS4 /// KIR3DL3 /// KIR3DL3 /// KIR3DS1 (11738374_at) / RFU C1QL1 (11718748_at) / Fold change /veh C1QL1 (11718748_at) / RFU TMPRSS4 (11747572_a_at) / Fold change /veh TMPRSS4 (11747572_a_at) / RFU HAMP (11756126_x_at) / Fold change /veh HAMP (11756126_x_at) / RFU RNFT2 (11725882_a_at) / Fold change /veh RNFT2 (11725882_a_at) / RFU NR4A2 (11747474_a_at) / Fold change /veh NR4A2 (11747474_a_at) / RFU ABCC12 (11746883_a_at) / Fold change /veh ABCC12 (11746883_a_at) / RFU TMEM136 (11760407_x_at) / Fold change /veh TMEM136 (11760407_x_at) / RFU CLDN22 /// WWC2 (11732394_at) / Fold change /veh CLDN22 /// WWC2 (11732394_at) / RFU HLA-DPB1 (11760878_x_at) / Fold change /veh HLA-DPB1 (11760878_x_at) / RFU SPINT1 (11716480_a_at) / Fold change /veh SPINT1 (11716480_a_at) / RFU GAP43 (11754022_s_at) / Fold change /veh GAP43 (11754022_s_at) / RFU A4GNT (11735810_at) / Fold change /veh A4GNT (11735810_at) / RFU PRB3 (11715151_x_at) / Fold change /veh PRB3 (11715151_x_at) / RFU TUBB4B (11761932_at) / Fold change /veh TUBB4B (11761932_at) / RFU CAPN14 (11732068_a_at) / Fold change /veh CAPN14 (11732068_a_at) / RFU TMCC2 (11721928_a_at) / Fold change /veh TMCC2 (11721928_a_at) / RFU IRGQ (11745062_a_at) / Fold change /veh IRGQ (11745062_a_at) / RFU FAM174B (11720279_a_at) / Fold change /veh FAM174B (11720279_a_at) / RFU TMPRSS4 (11748680_a_at) / Fold change /veh TMPRSS4 (11748680_a_at) / RFU FAM212B (11763350_a_at) / Fold change /veh FAM212B (11763350_a_at) / RFU PLEKHG5 (11743358_a_at) / Fold change /veh PLEKHG5 (11743358_a_at) / RFU ZSCAN30 (11745921_a_at) / Fold change /veh ZSCAN30 (11745921_a_at) / RFU CMKLR1 (11741424_a_at) / Fold change /veh CMKLR1 (11741424_a_at) / RFU LOC101060620 /// MAPK8IP1 (11723275_at) / Fold change /veh LOC101060620 /// MAPK8IP1 (11723275_at) / RFU SPTSSB (11747773_x_at) / Fold change /veh SPTSSB (11747773_x_at) / RFU PRSS12 (11739890_at) / Fold change /veh PRSS12 (11739890_at) / RFU BIN1 (11741810_x_at) / Fold change /veh BIN1 (11741810_x_at) / RFU WNT11 (11732464_a_at) / Fold change /veh WNT11 (11732464_a_at) / RFU C10orf10 (11716521_a_at) / Fold change /veh C10orf10 (11716521_a_at) / RFU C5orf56 (11738089_at) / Fold change /veh C5orf56 (11738089_at) / RFU CYB561 (11721691_x_at) / Fold change /veh CYB561 (11721691_x_at) / RFU ANKRD19P (11752326_a_at) / Fold change /veh ANKRD19P (11752326_a_at) / RFU OR2T12 /// OR2T33 /// OR2T8 (11738714_s_at) / Fold change /veh OR2T12 /// OR2T33 /// OR2T8 (11738714_s_at) / RFU VCAN (11748164_a_at) / Fold change /veh VCAN (11748164_a_at) / RFU JSRP1 (11732532_at) / Fold change /veh JSRP1 (11732532_at) / RFU KRTAP10-11 (11738290_x_at) / Fold change /veh KRTAP10-11 (11738290_x_at) / RFU MYO3A (11730013_a_at) / Fold change /veh MYO3A (11730013_a_at) / RFU EBF3 (11725865_a_at) / Fold change /veh EBF3 (11725865_a_at) / RFU CAMK2N1 (11719241_x_at) / Fold change /veh CAMK2N1 (11719241_x_at) / RFU C5orf56 (11738088_a_at) / Fold change /veh C5orf56 (11738088_a_at) / RFU OLFML3 (11715873_a_at) / Fold change /veh OLFML3 (11715873_a_at) / RFU LOC100653217 /// NTM (11731650_a_at) / Fold change /veh LOC100653217 /// NTM (11731650_a_at) / RFU MAPK11 (11762145_a_at) / Fold change /veh MAPK11 (11762145_a_at) / RFU FIZ1 (11724087_x_at) / Fold change /veh FIZ1 (11724087_x_at) / RFU OASL (11726364_x_at) / Fold change /veh OASL (11726364_x_at) / RFU SOX15 (11748057_x_at) / Fold change /veh SOX15 (11748057_x_at) / RFU CD79A (11719716_a_at) / Fold change /veh CD79A (11719716_a_at) / RFU HIST1H1D (11736915_at) / Fold change /veh HIST1H1D (11736915_at) / RFU CASKIN2 (11723855_a_at) / Fold change /veh CASKIN2 (11723855_a_at) / RFU LOC730098 (11760151_x_at) / Fold change /veh LOC730098 (11760151_x_at) / RFU OR4N2 (11742367_at) / Fold change /veh OR4N2 (11742367_at) / RFU PRRT2 (11749266_a_at) / Fold change /veh PRRT2 (11749266_a_at) / RFU SNX32 (11753110_a_at) / Fold change /veh SNX32 (11753110_a_at) / RFU CDHR5 (11726645_a_at) / Fold change /veh CDHR5 (11726645_a_at) / RFU RCAN1 (11760418_a_at) / Fold change /veh RCAN1 (11760418_a_at) / RFU FAM167A (11723789_a_at) / Fold change /veh FAM167A (11723789_a_at) / RFU FAM26E (11764081_at) / Fold change /veh FAM26E (11764081_at) / RFU ISYNA1 (11749810_s_at) / Fold change /veh ISYNA1 (11749810_s_at) / RFU ACY1 (11761880_at) / Fold change /veh ACY1 (11761880_at) / RFU 11764098_at / Fold change /veh 11764098_at / RFU SAMD14 (11745864_x_at) / Fold change /veh SAMD14 (11745864_x_at) / RFU NPB (11741838_a_at) / Fold change /veh NPB (11741838_a_at) / RFU TMPRSS6 (11731388_a_at) / Fold change /veh TMPRSS6 (11731388_a_at) / RFU KRTAP10-2 (11738614_at) / Fold change /veh KRTAP10-2 (11738614_at) / RFU ARHGAP8 /// PRR5-ARHGAP8 (11727945_x_at) / Fold change /veh ARHGAP8 /// PRR5-ARHGAP8 (11727945_x_at) / RFU KRTAP5-7 /// NADSYN1 (11734609_at) / Fold change /veh KRTAP5-7 /// NADSYN1 (11734609_at) / RFU RASL12 (11751679_a_at) / Fold change /veh RASL12 (11751679_a_at) / RFU CDKN2B (11736163_a_at) / Fold change /veh CDKN2B (11736163_a_at) / RFU PRF1 (11729649_at) / Fold change /veh PRF1 (11729649_at) / RFU, ZNF638 /// ZNF638-IT1 / Fold change vs veh, ZNF638 /// ZNF638-IT1 / RFU, PANK3 / Fold change vs veh, PANK3 / RFU, SH3YL1 / Fold change vs veh, SH3YL1 / RFU, ZEB2 / Fold change vs veh, ZEB2 / RFU, NRIP1 / Fold change vs veh, NRIP1 / RFU, PTTG1IP / Fold change vs veh, PTTG1IP / RFU, CAPN2 / Fold change vs veh, CAPN2 / RFU, MED14 / Fold change vs veh, MED14 / RFU, SNORA58 / Fold change vs veh, SNORA58 / RFU, C1orf63 / Fold change vs veh, C1orf63 / RFU, LRRFIP1 / Fold change vs veh, LRRFIP1 / RFU, NDUFAF7 / Fold change vs veh, NDUFAF7 / RFU, SLC12A2 / Fold change vs veh, SLC12A2 / RFU, IBTK / Fold change vs veh, IBTK / RFU, ESF1 / Fold change vs veh, ESF1 / Fold change vs veh, TMEM50B / RFU, TAOK1 / Fold change vs veh, TAOK1 / RFU, ACBD3 / Fold change vs veh, ACBD3 / RFU, TMA16 / Fold change vs veh, TMA16 / RFU, RWDD3 / Fold change vs veh, RWDD3 / RFU, BCAT1 / Fold change vs veh, BCAT1 / RFU, EDEM3 / Fold change vs veh, EDEM3 / RFU, TMEM33 / Fold change vs veh, TMEM33 / RFU, WDR75 / Fold change vs veh, WDR75 / RFU, AHCTF1 / Fold change vs veh, AHCTF1 / RFU, TFRC / Fold change vs veh, TFRC / RFU, ZDHHC17 / Fold change vs veh, ZDHHC17 / RFU, NOM1 / Fold change vs veh, NOM1 / RFU, ARL8B / Fold change vs veh, ARL8B / RFU, ZBTB11 / Fold change vs veh, ZBTB11 / RFU, TAMM41 / Fold change vs veh, TAMM41 / RFU, KIAA1704 /// LOC100996395 / Fold change vs veh, KIAA1704 /// LOC100996395 / RFU, ING1 / Fold change vs veh, ING1 / RFU, TRMT61B / Fold change vs veh, TRMT61B / RFU, FUBP3 / Fold change vs veh, FUBP3 / RFU, TP53 / Fold change vs veh, TP53 / RFU, TNKS2 / Fold change vs veh, TNKS2 / RFU, ZFP14 / Fold change vs veh, ZFP14 / RFU, ACTR2 / Fold change vs veh, ACTR2 / RFU, PPP3R1 / Fold change vs veh, PPP3R1 / RFU, PIK3R1 / Fold change vs veh, PIK3R1 / RFU, HNRNPA1 / Fold change vs veh, HNRNPA1 / RFU, RNF170 / Fold change vs veh, RNF170 / RFU, ZNF28 / Fold change vs veh, ZNF28 / RFU, RNGTT / Fold change vs veh, RNGTT / RFU, OGT / Fold change vs veh, OGT / RFU, BRD1 / Fold change vs veh, BRD1 / RFU, MARS / Fold change vs veh, MARS / RFU, ZNF655 / Fold change vs veh, ZNF655 / RFU, FAHD1 / Fold change vs veh, FAHD1 / RFU, BDP1 / Fold change vs veh, BDP1 / RFU, LRRCC1 / Fold change vs veh, LRRCC1 / RFU, ARID1A / Fold change vs veh, ARID1A / RFU, ZNF146 / Fold change vs veh, ZNF146 / RFU, ZNF330 / Fold change vs veh, ZNF330 / RFU, GPN3 / Fold change vs veh, GPN3 / RFU, C9orf123 / Fold change vs veh, C9orf123 / RFU, N4BP2L2 / Fold change vs veh, N4BP2L2 / RFU, ARFIP1 / Fold change vs veh, ARFIP1 / RFU, FAM179B / Fold change vs veh, FAM179B / RFU, BCL10 / Fold change vs veh, BCL10 / RFU, UHRF1BP1L / Fold change vs veh, UHRF1BP1L / RFU, BET1 / Fold change vs veh, BET1 / RFU, CNOT2 / Fold change vs veh, CNOT2 / RFU, ZNF268 / Fold change vs veh, ZNF268 / Fold change vs veh, ZNF507 / RFU, DGCR2 / Fold change vs veh, DGCR2 / RFU, WDSUB1 / Fold change vs veh, WDSUB1 / Fold change vs veh, HSP90B1 /// MIR3652 / RFU, ADSS / Fold change vs veh, ADSS / RFU, GK / Fold change vs veh, GK / RFU, ZNF148 / Fold change vs veh, ZNF148 / RFU, TAF9 / Fold change vs veh, TAF9 / RFU, SLC1A5 / Fold change vs veh, SLC1A5 / RFU, SLMO2 / Fold change vs veh, SLMO2 / RFU, ABCC4 / Fold change vs veh, ABCC4 / RFU, LOC101060439 /// RAP1B / Fold change vs veh, LOC101060439 /// RAP1B / RFU, RFX7 / Fold change vs veh, RFX7 / RFU, GTPBP10 / Fold change vs veh, GTPBP10 / RFU, CNEP1R1 / Fold change vs veh, CNEP1R1 / RFU, BIVM-ERCC5 /// ERCC5 / Fold change vs veh, BIVM-ERCC5 /// ERCC5 / RFU, ILF3 / Fold change vs veh, ILF3 / RFU 11762660_at / Fold change /veh 11762660_at / RFU VCAN (11757783_s_at) / Fold change /veh VCAN (11757783_s_at) / RFU DDX43 (11728927_at) / Fold change /veh DDX43 (11728927_at) / RFU KRT8 (11758188_x_at) / Fold change /veh KRT8 (11758188_x_at) / RFU NKD1 (11759106_at) / Fold change /veh NKD1 (11759106_at) / RFU SRD5A1 (11742802_a_at) / Fold change /veh SRD5A1 (11742802_a_at) / RFU TPSAB1 /// TPSB2 (11721975_s_at) / Fold change /veh TPSAB1 /// TPSB2 (11721975_s_at) / RFU GSTM3 (11746129_a_at) / Fold change /veh GSTM3 (11746129_a_at) / RFU IL23R (11737362_x_at) / Fold change /veh IL23R (11737362_x_at) / RFU TMEM51 (11727254_a_at) / Fold change /veh TMEM51 (11727254_a_at) / RFU PIWIL2 (11732686_x_at) / Fold change /veh PIWIL2 (11732686_x_at) / RFU ORM1 (11744905_x_at) / Fold change /veh ORM1 (11744905_x_at) / RFU CCDC152 (11743942_at) / Fold change /veh CCDC152 (11743942_at) / RFU ECM1 (11717891_a_at) / Fold change /veh ECM1 (11717891_a_at) / RFU IL23R (11748794_a_at) / Fold change /veh IL23R (11748794_a_at) / RFU TNFAIP8L3 (11732012_x_at) / Fold change /veh TNFAIP8L3 (11732012_x_at) / RFU MBOAT4 (11741988_at) / Fold change /veh MBOAT4 (11741988_at) / RFU 11764193_at / Fold change /veh 11764193_at / RFU TMEM53 (11763286_at) / Fold change /veh TMEM53 (11763286_at) / RFU MAGEB2 (11727129_at) / Fold change /veh MAGEB2 (11727129_at) / RFU TMEM200A (11744735_a_at) / Fold change /veh TMEM200A (11744735_a_at) / RFU CCDC152 (11751479_a_at) / Fold change /veh CCDC152 (11751479_a_at) / RFU FAM211A (11726209_a_at) / Fold change /veh FAM211A (11726209_a_at) / RFU RGS16 (11746705_a_at) / Fold change /veh RGS16 (11746705_a_at) / RFU VCAN (11755009_s_at) / Fold change /veh VCAN (11755009_s_at) / RFU RHOB (11743442_s_at) / Fold change /veh RHOB (11743442_s_at) / RFU RGS16 (11720943_a_at) / Fold change /veh RGS16 (11720943_a_at) / RFU RGS16 (11720944_at) / Fold change /veh RGS16 (11720944_at) / RFU, VPS4B / Fold change vs veh, VPS4B / RFU, CREB1 / Fold change vs veh, CREB1 / RFU, DNAJC13 / Fold change vs veh, DNAJC13 / RFU, GNAQ / Fold change vs veh, GNAQ / RFU, CDK5R1 / Fold change vs veh, CDK5R1 / RFU, ZRANB3 / Fold change vs veh, ZRANB3 / RFU, CUL4A / Fold change vs veh, CUL4A / RFU, CCNY / Fold change vs veh, CCNY / RFU, UFL1 / Fold change vs veh, UFL1 / RFU, COG3 / Fold change vs veh, COG3 / RFU, DIAPH2 / Fold change vs veh, DIAPH2 / RFU, SKA2 / Fold change vs veh, SKA2 / RFU, AFF3 / Fold change vs veh, AFF3 / RFU, LMF1 / Fold change vs veh, LMF1 / RFU, IPO11 / Fold change vs veh, IPO11 / RFU, DFFB / Fold change vs veh, DFFB / RFU, FOXP1 / Fold change vs veh, FOXP1 / RFU, CARD8 / Fold change vs veh, CARD8 / RFU, STRN3 / Fold change vs veh, STRN3 / RFU, ADK / Fold change vs veh, ADK / RFU, RASSF2 / Fold change vs veh, RASSF2 / RFU, WIPF1 / Fold change vs veh, WIPF1 / RFU, LARP1B / Fold change vs veh, LARP1B / RFU, RASA1 / Fold change vs veh, RASA1 / RFU, RB1 / Fold change vs veh, RB1 / RFU, PPFIA1 / Fold change vs veh, PPFIA1 / RFU, MAT2A / Fold change vs veh, MAT2A / RFU, CCT5 / Fold change vs veh, CCT5 / RFU, WDR92 / Fold change vs veh, WDR92 / RFU, CUX1 / Fold change vs veh, CUX1 / RFU, TTC7A / Fold change vs veh, TTC7A / RFU, TMEM135 / Fold change vs veh, TMEM135 / RFU, DEPTOR / Fold change vs veh, DEPTOR / RFU, CPM / Fold change vs veh, CPM / RFU, DNAJB6 / Fold change vs veh, DNAJB6 / RFU, CACNA2D3 / Fold change vs veh, CACNA2D3 / RFU, DTX4 / Fold change vs veh, DTX4 / RFU, TFCP2 / Fold change vs veh, TFCP2 / RFU, GMCL1 /// GMCL1P1 / Fold change vs veh, GMCL1 /// GMCL1P1 / RFU, AEBP2 / Fold change vs veh, AEBP2 / RFU, SNHG1 /// SNORD22 /// SNORD25 /// SNORD26 /// SNORD27 /// SNORD28 /// SNORD29 /// SNORD31 / Fold change vs veh, SNHG1 /// SNORD22 /// SNORD25 /// SNORD26 /// SNORD27 /// SNORD28 /// SNORD29 /// SNORD31 / Fold change (Aza/veh), C12orf56 (ProbeSet 11735607_a_at) / Fold change (ACY-1035/veh), C12orf56 (ProbeSet 11735607_a_at) / Fold change (Aza/veh), FGFR1OP (ProbeSet 11751329_s_at) / Fold change (ACY-1035/veh), FGFR1OP (ProbeSet 11751329_s_at) / Fold change (Aza/veh), VPS36 (ProbeSet 11739960_a_at) / Fold change (ACY-1035/veh), VPS36 (ProbeSet 11739960_a_at) / RFU SYPL1 (11715823_x_at) / Fold change /veh SYPL1 (11715823_x_at) / RFU IGFBP7 (11715501_s_at) / Fold change /veh IGFBP7 (11715501_s_at) / RFU REEP3 (11722064_at) / Fold change /veh REEP3 (11722064_at) / RFU IGLL1 (11728026_x_at) / Fold change /veh IGLL1 (11728026_x_at): dose or concentration left out as unconfirmed
# Conditions: MV-4-11 cells, 48 hours
smiles,measurement,value
Nc1ccc(-c2cccs2)cc1NC(=O)c1ccc2c(c1)cc(C1CC1)n2CCN1CCOCC1 [ACY-1035],Fold change /veh CDHR5 (11726645_a_at),1.11
